Laboratory results published in patent publication US12570657B2, “Mesylate salts of heterocyclic cytokinins, compositions containing these derivatives and use thereof” (UNIVERZITA PALACKEHO V OLOMOUCI, priority 2020, dated 2026).

Tests used:
[1] = tested on: MCF-7 (breast adenocarcinoma); experiment: In vitro cytotoxicity, Calcein AM assay, MCF7; format: cell-based; settings: 3-day Calcein-AM assay
Procedure, shortened: (§1)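 Seed ~10,000 cells/well; 12 h later add test compounds; incubate 72 h, 37 °C, 5% CO2; add Calcein AM to 1 μg/ml final; incubate 1 h; read calcein fluorescence. Vehicle control DMSO.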

[2] = tested on: CEM (T-lymphoblastic leukemia); experiment: In vitro cytotoxicity, Calcein AM assay, CEM; format: cell-based; settings: 3-day Calcein-AM assay
Procedure, shortened: as §1

HOS (human osteosarcoma) = experiment: In vitro cytotoxicity, Calcein AM assay, HOS; format: cell-based; settings: Homo sapiens, 72 h, 3-day Calcein-AM assay
Excerpt: Because toxic compounds adversely affect cell metabolic processes, many standard cytotoxicity assays are based on measuring the rate of metabolism of various artificial substrates. The resulting product is then quantified, for example, by spectrometry. Assays can be easily modified for use in 96-well plates, A microtiter assay based on the quantification of Calcein AM metabolism was used to evaluate the cytotoxicity of cytokinins, for example meta-topolin, ortho-topolin, kinetin, BAP or its mesylate salts, but also a number of other cytokinin mesylate derivatives according to the invention. The test is widely used in drug screening programs and in chemosensitivity testing. In living cells, Calcein AM is enzymatically hydrolyzed and the accumulation of the resulting calcein is manifested by green fluorescence. […] These cells were maintained in standard DMEM or RPMI medium (Sigma, MO, USA) supplemented with heat-inactivated fetal bovine serum (10%) with 2 mM L-glutamine and penicillin-streptomycin (1%) under standard cell culture conditions (37° C., 5% CO2 in a humid environment) and subcultured two or three times a week using a standard trypsinization procedure. Approximately 10,000 cells in 80 μl of medium were seeded in a 96-well microtiter plate. After 12 hours of incubation, the compounds to be tested were added in 20 μl aliquots. Control cultures were treated with DMSO alone. […] After 72 hours of incubation, Calcein AM solution (Molecular Probes) was added to a final concentration of 1 μg/ml and the cells were incubated for another hour.
(§2) Cytoxicity of compounds was tested on panel of cell lines of different histogenetic and species origin.

rose explants = experiment: In vitro and post vitro multiplication and rooting of rose; format: in vivo, Rosa multiflora; settings: for Number of roots per plant / Overall length of plant (cm): Ex vitro, after four weeks of acclimatising in peat; for Number of new shoots per explant / Number of roots per explant / Overall length of explant (cm) / number of flowers per explant: In vitro, 10 μM cytokinin, 8 weeks
Description: The aim of this experiment was to test whether the new compounds are of practical use in tissue culture practice. The multiplication rate was investigated and the post vitro effects on rooting were examined Rosa hybrida (pot rose cultivar) was cultured in 350 ml vessels with a screw on polycarbonate lid. Each culture vessel contained 100 ml autoclaved medium (120° C., 20 min). The cultures were maintained at 23±2° C. under a 16 h photoperiod at 40 μM·m^−2 s^−1 PAR. The basal medium (BMR) contained Murashige and Skoog (1962) macroelements, microelements and vitamins, 95 μM NaFeEDTA, 555 μM myo-inositol, 111 mM sucrose, 1.332 mM glycine, 684 μM L-glutamine and 7 g/l agar. This medium was supplemented with 10 μM BAP, mT, or 3MeOBAP, or the corresponding mesylate salts. The control medium didn't contain any cytokinin After a culture period of 8 weeks, the number of induced shoots per explant was determined, as well as root number/explant and total root length/explant. The roots were removed and the explants (shoot clusters) were planted in unfertilised peat. After four weeks of acclimatising in a fog unit, root number and root length was determined. As expected, a cytokinin free medium yielded almost no new shoots. The original shoot explant grew out as a good quality single shoot that rooted very well. […] Explants growing on cytokininin mesylates were characterized by a high multiplication index (a large number of new shoots) and were more rooted in comparison with free bases. The use of cytokinin mesylates led to an increase in all monitored parameters in plant culture compared to free cytokinin bases.

[3] = tested on: G361 (malignant melanoma); experiment: In vitro cytotoxicity, Calcein AM assay, G-361; format: cell-based; settings: Homo sapiens, 72 h, 3-day Calcein-AM assay
Excerpt: Because toxic compounds adversely affect cell metabolic processes, many standard cytotoxicity assays are based on measuring the rate of metabolism of various artificial substrates. The resulting product is then quantified, for example, by spectrometry. Assays can be easily modified for use in 96-well plates, A microtiter assay based on the quantification of Calcein AM metabolism was used to evaluate the cytotoxicity of cytokinins, for example meta-topolin, ortho-topolin, kinetin, BAP or its mesylate salts, but also a number of other cytokinin mesylate derivatives according to the invention. The test is widely used in drug screening programs and in chemosensitivity testing. In living cells, Calcein AM is enzymatically hydrolyzed and the accumulation of the resulting calcein is manifested by green fluorescence. The following cell lines—RPMI 8226 (multiple myeloma), CEM (T-lymphoblastic leukemia), K562 (chronic myeloid leukemia), HL-60 (promyelocytic, leukemia), MCF-7 (breast adenocarcinoma), HeLa (cervical cancer), G361 (malignant melanoma), HOS (human osteosarcoma) and BJ (human foreskin fibroblasts)—were obtained from the American Type Culture Collection (Manassas, VA, USA). These cells were maintained in standard DMEM or RPMI medium (Sigma, MO, USA) supplemented with heat-inactivated fetal bovine serum (10%) with 2 mM L-glutamine and penicillin-streptomycin (1%) under standard cell culture conditions (37° C., 5% CO2 in a humid environment) and subcultured two or three times a week using a standard trypsinization procedure. Approximately 10,000 cells in 80 μl of medium were seeded in a 96-well microtiter plate. After 12 hours of incubation, the compounds to be tested were added in 20 μl aliquots. Control cultures were treated with DMSO alone. […] Serial, 3-fold dilutions (six in total, peak concentrations in 166 μM incubations) of each compound were tested. After 72 hours of incubation, Calcein AM solution (Molecular Probes) was added to a final concentration of 1 μg/ml and the cells were incubated for another hour. Free calcein fluorescence was then quantified using a Fluoroscan Ascent fluorometer (Microsystems), and the percentage of surviving cells in each well was calculated by dividing the OD obtained from each cell by the exposed cells by the mean OD obtained from control wells×100%, Finally, IC50 values (concentration causing a 50% decrease in cellular esterase activity) were calculated for each compound generated from dose-response curves (Krys̆tof et al., 2005, Bioorg. Med. Chem. Lett. 12, 3283-3286). The IC50 values reported here are averages obtained from at least three independent experiments, where the individual replication values fell within 20% of the average. Growth inhibition was calculated using the following equation: […](mean FDwell exposed to drug−mean FDblank)/(mean FDcontrol well−mean FDblank)×100%.
as §2

skin fibroblasts BJ = experiment: Cytotoxicity for non-cancer cells, resazurine reduction assay, BJ; settings: human, 72 h
Description: (§3) It is used for viability testing of both bacterial and eukaryotic cells. […] Cultivation medium was DMEM with 10% FBS. Before the experiment, the cells were subcultured for 2 weeks. For the cytotoxicity evaluation, the cells were trypsinized and pipetted into 96 well plates (5000 cells per well in 80 microliters). After 24 hours, 5× concentrated solutions of the tested compounds in the medium were added. […] IC50 values were calculated from dose response curves using drc library for R programming environment.

keratinocytes HaCaT = experiment: Cytotoxicity for non-cancer cells, resazurine reduction assay, HaCaT
Description: as §3

[4] = tested on: retinal epitelium cells ARPE-19; experiment: Cytotoxicity for non-cancer cells, resazurine reduction assay, ARPE-19
Description: as §3

[5] = resazurin, 72 hour treatment, HaCaT
[6] = resazurin, 72 hour treatment, ARPE-19

SMILES	IC50 ([1]; Homo sapiens, MCF7, 72 h) [µM]	IC50 ([2]; 72 h) [µM]	IC50 (HOS (human osteosarcoma)) [µM]	Number of roots per plant (rose explants)	Overall length of plant (cm) (rose explants)	Number of new shoots per explant (rose explants)	Number of roots per explant (rose explants)	Overall length of explant (cm) (rose explants)	number of flowers per explant (rose explants)	IC50 [3] [µM]	IC50 ([1]; mesylate) [µM]	Cytotoxicity for Fibroblasts (GI20) BJ (skin fibroblasts BJ) [µM]	Cytotoxicity for Fibroblasts (GI20) HaCaT (keratinocytes HaCaT; [5]) [µM]	Cytotoxicity for Fibroblasts (GI20) ARPE-19 [4, 6] [μM]	Cytotoxicity for Fibroblasts (GI20) HaCaT (keratinocytes HaCaT; human, 72 h) [µM]	Number of roots per plant (rose explants; listed as 6-benzylaminopurine)	Number of new shoots per explant (rose explants; listed as 6-benzylaminopurine)	Cytotoxicity for Fibroblasts (GI20) ARPE-19 ([4]; human, 72 h) [μM]	IC50 ([2]; mesylate) [µM]
COc1cccc(CNc2ncnc3nc[nH]c23)c1 [3MeOBAP, 6-(3-methoxybenzylamino)purine]	> 167	> 167	> 167	1.7	4.1	4.3	0.0	0.0	0.03	125									
CS(=O)(=O)O.c1ccc(CNc2ncnc3nc[nH]c23)cc1 [BAP mesylate, 6-benzylaminopurine mesylate]				0.9	1.4	4.1	0.0	0.0	0.00		> 167	>100	>100	>100					
c1ccc(CNc2ncnc3nc[nH]c23)cc1 [BAP, 6-benzylaminopurine]	166	> 167	> 167	rooted badly	1.1	high shoot multiplication rate	0.0	0.0	0.00			137.5			>100	0.6	3.8	>100	
CS(=O)(=O)O.Oc1cccc(CNc2ncnc3nc[nH]c23)c1 [mT mesylate, 6-(3-hydroxybenzylamino)purine mesylate]				1.8	4.3	2.4	0.0	0.0	0.17			>100	>100	>100					> 167
Oc1cccc(CNc2ncnc3nc[nH]c23)c1 [meta-topolin (mT), 6-(3-hydroxybenzylamino)purine]	> 167	90.1	> 167	1.4	3.8	2.1	0.0	0.0	0.16	> 167		>100	>100	>100					
Oc1ccccc1CNc1ncnc2nc[nH]c12 [ortho-topolin (oT), 6-(2-hydroxybenzylamino)purine]	> 167	69.2	> 167							103		98.7	>100	>100					
